Measured values: US12599136B2, “Substituted isophthalic acid diamides and their use as herbicides” (Bayer Aktiengesellschaft, priority 2020, dated 2026)

Tests used:
Type in all cases: in vivo
Setaria viridis [1] = assay: Pre-emergence herbicidal action against SETVI; conditions: for Pre-emergence action against SETVI: 80 g/ha; for Herbicidal action against SETVI: comparative experiment
Procedure, shortened: (§1)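 Pre-emergence soil-surface spray of formulated compound (WP or EC; 600 to 800 l/ha; 0.2% wetting agent) over seeds sown in sandy loam. After 3 weeks under greenhouse conditions, damage is estimated visually in percent against untreated plants.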

Avena fatua [2] = assay: Post-emergence herbicidal action against AVEFA; conditions: 20 g/ha, visual assessment about 3 weeks after treatment
Procedure, shortened: (§2)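 Spray, one-leaf stage: WP or EC compound in water, 600–800 l/ha, 0.2% wetting agent. Plants held about 3 weeks in the greenhouse, then visually rated in percent of kill compared with untreated controls.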

Viola tricolor [3] = assay: Post-emergence herbicidal action against VIOTR
Procedure, shortened: as §2

Matricaria inodora [4] = assay: Pre-emergence herbicidal action against MATIN; conditions: visual score after 3 weeks vs untreated controls
Procedure, shortened: as §1

Abutilon theophrasti [5] = assay: Pre-emergence herbicidal action against ABUTH; conditions: for Pre-emergence action against ABUTH: visual score after 3 weeks vs untreated controls; for Herbicidal action against ABUTH: comparative experiment, pre-emergence
Procedure, shortened: as §1

Digitaria sanguinalis [6] = assay: Post-emergence herbicidal action against DIGSA
Protocol: Seeds of monocotyledonous and dicotyledonous weed and crop plants are laid out in sandy loam soil in wood-fiber pots, covered with soil and cultivated in a greenhouse under good growth conditions. 2 to 3 weeks after sowing, the test plants are treated at the one-leaf stage. The compounds of the invention, formulated in the form of wettable powders (WP) or as emulsion concentrates (EC), are then sprayed onto the green parts of the plants in the form of an aqueous suspension or emulsion at a water application rate equivalent to 600 to 800 l/ha, with addition of 0.2% wetting agent. After the test plants have been left to stand in the greenhouse under optimal growth conditions for about 3 weeks, the action of the preparations is assessed visually in comparison to untreated controls (herbicidal action in percent (%): 100% activity=the plants have died, 0% activity=like control plants). […] The tables below illustrate, in an illustrative manner, the post-emergence herbicidal action of the compounds of the invention, the herbicidal activity being stated in percent.

Alopecurus myosuroides [7] = assay: Pre-emergence herbicidal action against ALOMY; conditions: for Pre-emergence action against ALOMY: visual score after 3 weeks vs untreated controls; for Herbicidal action against ALOMY: comparative experiment, pre-emergence
Procedure, shortened: as §1

Amaranthus retroflexus [8] = assay: Pre-emergence herbicidal action against AMARE; conditions: visual score after 3 weeks vs untreated controls
Procedure, shortened: as §1

Matricaria inodora [9] = assay: Post-emergence herbicidal action against MATIN; conditions: for Post-emergence action against MATIN in %: visual assessment about 3 weeks after treatment
Procedure, shortened: as §2

Amaranthus retroflexus [10] = assay: Post-emergence herbicidal action against AMARE; conditions: visual assessment about 3 weeks after treatment
Procedure, shortened: as §2

Viola tricolor [11] = assay: Pre-emergence herbicidal action against VIOTR; conditions: for Pre-emergence action against VIOTR: 80 g/ha
Procedure, shortened: as §1

Polygonum convolvulus = assay: Pre-emergence herbicidal action against POLCO; conditions: 80 g/ha
Procedure, shortened: as §1

Echinochloa crus-galli [12] = assay: Pre-emergence herbicidal action against ECHCG; conditions: for Pre-emergence action against ECHCG: 80 g/ha, visual score after 3 weeks vs untreated controls; for Herbicidal action against ECHCG: comparative experiment, pre-emergence
Procedure, shortened: as §1

Abutilon theophrasti [13] = assay: Post-emergence herbicidal action against ABUTH
Procedure, shortened: as §2

Pharbitis purpurea = assay: Post-emergence herbicidal action against PHBPU; conditions: for Post-emergence action against PHBPU in %: visual assessment about 3 weeks after treatment
Procedure, shortened: as §2

Alopecurus myosuroides [14] = assay: Post-emergence herbicidal action against ALOMY
Procedure, shortened: as §2

Echinochloa crus-galli [15] = assay: Post-emergence herbicidal action against ECHCG; conditions: visual assessment about 3 weeks after treatment
Procedure, shortened: as §2

Setaria viridis [16] = assay: Post-emergence herbicidal action against SETVI; conditions: for Post-emergence action against SETVI in %: visual assessment about 3 weeks after treatment
Procedure, shortened: as §2

Avena fatua [17] = assay: Pre-emergence herbicidal action against AVEFA; conditions: for Pre-emergence action against AVEFA: visual score after 3 weeks vs untreated controls; for Herbicidal action against AVEFA: comparative experiment, pre-emergence
Procedure, shortened: as §1

Veronica persica = assay: Pre-emergence herbicidal action against VERPE; conditions: 80 g/ha
Procedure, shortened: as §1

Lolium rigidum = assay: Pre-emergence herbicidal action against LOLRI; conditions: 80 g/ha
From the text: Seeds of monocotyledonous and dicotyledonous weed plants and crop plants are laid out in sandy loam soil in wood-fiber pots and covered with soil. The compounds of the invention, formulated in the form of wettable powders (WP) or as emulsion concentrates (EC), are then applied to the surface of the covering soil in the form of an aqueous suspension or emulsion at a water application rate equivalent to 600 to 800 l/ha, with addition of 0.2% wetting agent. After the treatment, the pots are placed in a greenhouse and kept under good growth conditions for the trial plants. The damage to the test plants is scored visually after a test period of 3 weeks by comparison with untreated controls (herbicidal activity in percent (%): 100% activity=the plants have died, 0% activity=like control plants). […] The tables below illustrate, in an illustrative manner, the post-emergence herbicidal action of the compounds of the invention, the herbicidal activity being stated in percent.

Digitaria sanguinalis [18] = assay: Pre-emergence herbicidal action against DIGSA
Procedure, shortened: as §1

[19] = comparative experiment, 5 g a.i./ha

CCN(CC)C(=O)c1c(C(F)F)ccc(C(=O)Nc2nnnn2CC)c1Cl [Example 2-166]
90%: Post-emergence action against DIGSA in % (Digitaria sanguinalis [6]; 20 g/ha) | Pre-emergence action against ALOMY (Alopecurus myosuroides [7]; 80 g/ha) | Pre-emergence action against ECHCG (Echinochloa crus-galli [12]) | Post-emergence action against ABUTH (Abutilon theophrasti [13]; 20 g/ha) | Post-emergence action against PHBPU in % (Pharbitis purpurea; 20 g/ha) | Post-emergence action against ALOMY (Alopecurus myosuroides [14]; 20 g/ha) | Post-emergence action against SETVI in % (Setaria viridis [16]; 5 g/ha) | Post-emergence action against SETVI in % (Setaria viridis [16]; 20 g/ha)
100%: Pre-emergence action against SETVI (Setaria viridis [1]) | Pre-emergence action against MATIN (Matricaria inodora [4]; 80 g/ha) | Pre-emergence action against ABUTH (Abutilon theophrasti [5]; 20 g/ha) | Pre-emergence action against ABUTH (Abutilon theophrasti [5]; 80 g/ha) | Pre-emergence action against AMARE (Amaranthus retroflexus [8]; 20 g/ha) | Pre-emergence action against AMARE (Amaranthus retroflexus [8]; 80 g/ha) | Post-emergence action against AMARE in % (Amaranthus retroflexus [10]; 5 g/ha) | Post-emergence action against AMARE in % (Amaranthus retroflexus [10]; 20 g/ha) | Pre-emergence action against VIOTR (Viola tricolor [11]) | Pre-emergence action against VERPE (Veronica persica)
80%: Post-emergence action against AVEFA in % (Avena fatua [2]) | Post-emergence action against VIOTR in % (Viola tricolor [3]; 20 g/ha) | Pre-emergence action against MATIN (Matricaria inodora [4]; 20 g/ha) | Post-emergence action against DIGSA in % (Digitaria sanguinalis [6]; 5 g/ha) | Post-emergence action against MATIN in % (Matricaria inodora [9]; 5 g/ha) | Post-emergence action against MATIN in % (Matricaria inodora [9]; 20 g/ha) | Pre-emergence action against POLCO (Polygonum convolvulus) | Post-emergence action against ABUTH (Abutilon theophrasti [13]; 5 g/ha) | Post-emergence action against PHBPU in % (Pharbitis purpurea; 5 g/ha) | Post-emergence action against ECHCG in % (Echinochloa crus-galli [15]; 20 g/ha) | Pre-emergence action against AVEFA (Avena fatua [17]; 80 g/ha)

CN(C)C(=O)c1c(C(F)F)ccc(C(=O)Nc2nnnn2C)c1Cl [Example 1-154]
50: Herbicidal action against AVEFA (Avena fatua [17]; 20 g a.i./ha)
80: Herbicidal action against MATIN (Matricaria inodora [9]; [19]) | Herbicidal action against ECHCG (Echinochloa crus-galli [12]; 20 g a.i./ha) | Herbicidal action against PHBPU (Pharbitis purpurea; [19])
100%: Pre-emergence action against SETVI (Setaria viridis [1]) | Post-emergence action against VIOTR in % (Viola tricolor [3]; 5 g/ha) | Post-emergence action against VIOTR in % (Viola tricolor [3]; 20 g/ha) | Pre-emergence action against ABUTH (Abutilon theophrasti [5]; 80 g/ha) | Pre-emergence action against ALOMY (Alopecurus myosuroides [7]; 80 g/ha) | Pre-emergence action against AMARE (Amaranthus retroflexus [8]; 80 g/ha) | Post-emergence action against AMARE in % (Amaranthus retroflexus [10]; 20 g/ha) | Pre-emergence action against VIOTR (Viola tricolor [11]) | Pre-emergence action against ECHCG (Echinochloa crus-galli [12]) | Post-emergence action against ABUTH (Abutilon theophrasti [13]; 5 g/ha) | Post-emergence action against ABUTH (Abutilon theophrasti [13]; 20 g/ha) | Post-emergence action against ALOMY (Alopecurus myosuroides [14]; 20 g/ha) | Post-emergence action against SETVI in % (Setaria viridis [16]; 5 g/ha) | Post-emergence action against SETVI in % (Setaria viridis [16]; 20 g/ha) | Pre-emergence action against DIGSA (Digitaria sanguinalis [18]; 20 g/ha) | Pre-emergence action against DIGSA (Digitaria sanguinalis [18]; 80 g/ha) | Pre-emergence action against AVEFA (Avena fatua [17]; 80 g/ha)
100: Herbicidal action against SETVI (Setaria viridis [1]; 80 g a.i./ha) | Herbicidal action against VIOTR (Viola tricolor [3]; [19]) | Herbicidal action against ABUTH (Abutilon theophrasti [5]; 20 g a.i./ha) | Herbicidal action against ABUTH (Abutilon theophrasti [5]; 80 g a.i./ha) | Herbicidal action against ALOMY (Alopecurus myosuroides [7]; 80 g a.i./ha) | Herbicidal action against VIOTR (Viola tricolor [11]; comparative experiment, 80 g a.i./ha) | Herbicidal action against ECHCG (Echinochloa crus-galli [12]; 80 g a.i./ha) | Herbicidal action against ABUTH (Abutilon theophrasti [13]; [19]) | Herbicidal action against SETVI (Setaria viridis [16]; [19]) | Herbicidal action against AVEFA (Avena fatua [17]; 80 g a.i./ha)
70: Herbicidal action against ALOMY (Alopecurus myosuroides [7]; 20 g a.i./ha)
80%: Pre-emergence action against MATIN (Matricaria inodora [4]; 20 g/ha) | Post-emergence action against MATIN in % (Matricaria inodora [9]; 5 g/ha) | Pre-emergence action against POLCO (Polygonum convolvulus) | Post-emergence action against PHBPU in % (Pharbitis purpurea; 5 g/ha) | Pre-emergence action against AVEFA (Avena fatua [17]; 20 g/ha) | Pre-emergence action against VERPE (Veronica persica)
90: Herbicidal action against SETVI (Setaria viridis [1]; 20 g a.i./ha) | Herbicidal action against ALOMY (Alopecurus myosuroides [14]; [19])
90%: Pre-emergence action against MATIN (Matricaria inodora [4]; 80 g/ha) | Post-emergence action against DIGSA in % (Digitaria sanguinalis [6]; 5 g/ha) | Post-emergence action against DIGSA in % (Digitaria sanguinalis [6]; 20 g/ha) | Pre-emergence action against ALOMY (Alopecurus myosuroides [7]; 20 g/ha) | Pre-emergence action against AMARE (Amaranthus retroflexus [8]; 20 g/ha) | Post-emergence action against MATIN in % (Matricaria inodora [9]; 20 g/ha) | Post-emergence action against AMARE in % (Amaranthus retroflexus [10]; 5 g/ha) | Post-emergence action against PHBPU in % (Pharbitis purpurea; 20 g/ha) | Post-emergence action against ALOMY (Alopecurus myosuroides [14]; 5 g/ha) | Post-emergence action against ECHCG in % (Echinochloa crus-galli [15]; 5 g/ha) | Post-emergence action against ECHCG in % (Echinochloa crus-galli [15]; 20 g/ha) | Pre-emergence action against LOLRI (Lolium rigidum)
